For one assay, the target named is T1, Bcl-2-like protein 2 (Homo sapiens, UniProt Q92843).
T1 sequence (Q92843 whole entry): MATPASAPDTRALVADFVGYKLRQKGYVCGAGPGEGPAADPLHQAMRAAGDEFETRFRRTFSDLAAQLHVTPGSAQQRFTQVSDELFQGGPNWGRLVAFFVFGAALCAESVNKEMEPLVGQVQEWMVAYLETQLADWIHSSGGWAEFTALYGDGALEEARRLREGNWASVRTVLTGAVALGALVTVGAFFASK
Briefly: inhibitors of Bim binding to Bcl-W, confirmation, biochemical, multiplexed, bead-based flow cytometry, HTS hits (AID 2081).
Details: not given
One may read the EC50 as the concentration needed to bring the measured effect to its halfway point. In the case of `Cc1nnc(Sc2cc(NCCO)c([N+](=O)[O-])c3nonc23)s1` [2-[[7-[(5-methyl-1,3,4-thiadiazol-2-yl)thio]-4-nitro-2,1,3-benzoxadiazol-5-yl]amino]ethanol], the 50% effective concentration (EC50) was 1.31 µM.

Compound `CC(=O)OCCCNc1cc(Sc2nc3ccccc3s2)c2nonc2c1[N+](=O)[O-]` [MLS000521052] had an EC50 of 0.62 µM. Same read-out and setting: next, `COc1ccccc1NC1=C(NC(C)=O)C(=O)c2ccccc2C1=O` [N-[3-(2-methoxyanilino)-1,4-dioxonaphthalen-2-yl]acetamide]: 3.35 µM.

Consider `Cc1cc2nn(-c3cccc4ccccc34)nc2cc1N` [SMR000076237], for which the EC50 stood at 2.64 µM.

The assay is the same for the next values; noted with them: inactive by the depositor's call.
In turn, `O=C(/C=C/c1ccc(-c2ccccc2[N+](=O)[O-])o1)c1ccccc1` had an EC50 of 21.2 µM. Same read-out and setting: next, `CCOc1ccccc1CNc1ccc(O)cc1`: 26 µM; `O=C(NCc1ccccc1)c1ccc2nc(-c3ccco3)c(-c3ccco3)nc2c1` [2,3-bis(furan-2-yl)-N-(phenylmethyl)quinoxaline-6-carboxamide]: 11.4 µM. Still for that read-out and setting: the same measure for `CNC1CCC(Br)CC(C(=O)C=Cc2cccc(OC)c2OC)C1=O` (configuration not stated) [4-bromo-2-[(E)-3-(2,3-dimethoxyphenyl)-1-oxoprop-2-enyl]-7-(methylamino)-1-cycloheptanone]: 47.3 µM; for `COc1cc(/N=C2\SSNC2Cl)c(OC)cc1Cl` (configuration not stated) [4-chloro-N-(4-chloro-2,5-dimethoxyphenyl)-5-dithiazolidinimine]: 23 µM.

`Clc1nc(NCc2cccnc2)nc(N2CCOCC2)n1` [MLS000121154]: a half-maximal response (EC50) required 15.5 µM. Same read-out and setting: next, `COc1ccc(CCNC(=O)c2ccc3nc(-c4ccco4)c(-c4ccco4)nc3c2)cc1OC` [N-[2-(3,4-dimethoxyphenyl)ethyl]-2,3-di-2-furylquinoxaline-6-carboxamide]: 20.8 µM; `Oc1ccc(NCc2ccccc2OCc2ccccc2)cc1` [SMR000231540]: 20.5 µM.

Source of the values: BindingDB's records for doi:10.7270/Q2CZ35MZ (Nmmlsc, 2009).
